# Measurements taken from patent US7217555B1, “Cloning and characterisation of novel mammalian peptidase” (Janssen Pharmaceutica N.V., priority 1998, dated 2007).
# Legend:
# Type in all cases: biochemical
# NAALAD-ase II = biological target: T1, NAALAD-ase II (Homo sapiens, UniProt Q9Y3Q0); assay: [3H]-NAAG hydrolysis assay, membranes of COS cells transiently transfected with NAALAD-ase II
# T1 construct: expressed in transfected cells; host or cells: COS cells, transient, pcDNA-3
# Protocol: (§1) FIG. 9: is an illustration of time course of NAALAD-ase activity. Activity of membrane preparations from COS cells transiently transfected with either NAALAD-ase I (A) or […]. Hydrolysis of 500 nM 3[H]-NAAG in 1 mM ZnCl2, 50 mM Tris.HCL (pH 7.4) was assayed for 0, 15, 30 and 60 min at 37° C. in the presence (open circles) or absence (closed circles) of 30 μM quisqualate. Reactions were terminated with 250 mM ice cold sodium phosphate and released 3[H]-glutamate measured. (C) Inhibition of NAALAD-ase I (open circles) and NAALAD-ase II (closed circles) activity by increasing concentrations of quisqualic acid expressed as % of control (activity in the absence of any inhibitor).
# (§2) COS cells were maintained in complete medium (DMEM supplemented with 10% foetal calf serum, 1× non-essential amino acids and a 1× strptamycin/penicillin/glutamine mix). Prior to transfection cells were washed twice with PBS, Ca^+2/Mg^2+ free pre-warmed to 37° C. and dissociated from culture plates by addition of a trypsin/EDTA solution for 1–2 minutes. Cells were collected after a 10 min spin at 1600 rpm and re-suspended in 1–2 ml of equilibrated (5% CO2/95% air) pre-warmed medium. The cell titre was determined in a Coulter counter and cells were seeded in 6 well plates at a density of 15000 cells/cm^2 and allowed to reach approximately 80% confluence (˜2 days growth). For each transfection 6 μl FuGENE6 (Boehringer Mannheim, Germany) was added to 96 μl serum free medium and incubated for 5 minutes at 20° C. This preparation was added to a second tube containing 1 μg of NAALAD-ase/pcDNA3 DNA, mixed gently and allowed to stand for 15 minutes at room temperature. The DNA/FuGENE6/serum-free medium mix was pipetted into a well containing 2 ml fresh complete medium. […]
# (§3) NAALAD-ase activity was quantified by determination of the extent of hydrolysis of N-acetyl-L-aspartyl-L-(3,4-[^3H])-glutamate as previously described (Blakeley et al., 1988). […] Assay eluates were diluated with scintillation cocktail (16 ml Ultima Gold XR) and counted in a scintillation counter (Packard). […]
# NAALAD-ase I [1] = biological target: T2, NAALAD-ase I (Homo sapiens, UniProt Q04609, Y75H); assay: Scintillation proximity assay (SPA) of [3H]-NAAG hydrolysis, recombinant NAALAD-ase I membrane preparations; set-up: expressed in transfected cells
# Protocol: (§4) FIG. 10: is an illustration of NAALAD-ase activity determinations using SPA beads. (A) 10 μg of protein from LNCaP cell membrane preparations was used per reaction to develop a high throughput assay NAALAD-ase assay. Hydrolysis of 40 nM 3[H]-NAAG in 1 mM ZnCl2, 50 mM Tris-HCL (pH 7.4) was measured at 25° C. for different incubation times in a 100 μl reaction volume. Reactions were terminated by the addition of 100 μl glycine buffer (pH 3.0) and naked YS-SPA beads. (C) Inhibition of NAALAD-ase I (open circles) or LNCaP membrane NAALAD-ase (closed circles) activity by increasing concentrations of quisqualic acid expressed as a % of control (activity in the absence of any inhibitor).
# (§5) NAALAD-ase assays were performed at 37° C. or 25° C. for 10 min in the presence of 50 mM Tris-HCl, pH 7.4, containing 1 mM ZnCl2. Each assay was performed in a 100 μl reaction volume containing 40 nM 3[H]-NAAG, 50 mM Tris-HCl (pH 7.4), 1 mM Zn^2+C2 and either 10 μg of recombinant NAALAD-ase I or LNCaP cell membrane preparations. Reactions were terminated by addition of 100 μl glycine buffer (pH 3.0) and 1 mg naked YS-SPA beads. After allowing the beds to settle for 30 min, the assay mixture was counted in a microtiterplate scintillation counter. […]
# NAALAD-ase L = biological target: T3, NAALAD-ase L (Homo sapiens, UniProt Q9UQQ1); assay: [3H]-NAAG hydrolysis assay, COS cells transfected with NAALAD-ase L; conditions: recombinant preparation from COS cells
# T3 construct: To construct a full length NAALAD-ase L clone, two new primer sets were designed; expressed in transfected cells; host or cells: COS cells, transient, pcDNA-3
# T3 sequence (Q9UQQ1 1-740 S100X/R686S/T687H/S689L/V690R/V691S/T692H/F693I): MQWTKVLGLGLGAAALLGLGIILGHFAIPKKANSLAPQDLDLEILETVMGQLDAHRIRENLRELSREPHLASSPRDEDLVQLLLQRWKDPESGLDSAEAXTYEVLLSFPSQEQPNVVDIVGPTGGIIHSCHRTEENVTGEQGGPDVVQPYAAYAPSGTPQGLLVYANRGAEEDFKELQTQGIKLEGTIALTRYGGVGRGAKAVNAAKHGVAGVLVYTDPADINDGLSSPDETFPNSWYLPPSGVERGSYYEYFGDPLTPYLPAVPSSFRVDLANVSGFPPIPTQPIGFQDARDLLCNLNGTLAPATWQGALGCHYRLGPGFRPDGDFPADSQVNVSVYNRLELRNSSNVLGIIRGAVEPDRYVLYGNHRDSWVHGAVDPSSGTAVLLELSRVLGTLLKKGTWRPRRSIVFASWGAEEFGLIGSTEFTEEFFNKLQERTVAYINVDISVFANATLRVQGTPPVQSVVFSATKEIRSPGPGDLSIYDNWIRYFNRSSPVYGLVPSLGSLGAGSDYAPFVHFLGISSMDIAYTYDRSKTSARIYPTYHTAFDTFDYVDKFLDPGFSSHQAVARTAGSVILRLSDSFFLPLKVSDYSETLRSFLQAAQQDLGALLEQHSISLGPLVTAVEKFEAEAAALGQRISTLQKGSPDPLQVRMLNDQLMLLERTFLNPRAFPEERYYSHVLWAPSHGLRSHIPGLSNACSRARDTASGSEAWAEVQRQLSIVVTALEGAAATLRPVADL
# Protocol: as §1
# COS cells were maintained in complete medium (DMEM supplemented with 10% foetal calf serum, 1× non-essential amino acids and a 1× strptamycin/penicillin/glutamine mix). […] The cell titre was determined in a Coulter counter and cells were seeded in 6 well plates at a density of 15000 cells/cm^2 and allowed to reach approximately 80% confluence (˜2 days growth). […]
# as §3
# [2] = biological target: T4, LNCaP membrane NAALAD-ase (Homo sapiens, UniProt Q04609); assay: Scintillation proximity assay (SPA) of [3H]-NAAG hydrolysis, LNCaP cell membrane preparations
# T4 construct: 10 μg of protein from LNCaP cell membrane preparations was used per reaction; endogenous in cells; host or cells: LNCaP cell membranes
# Protocol: as §4, §5
# NAALAD-ase I [3] = biological target: T2, NAALAD-ase I; assay: [3H]-NAAG hydrolysis assay, membranes of COS cells transiently transfected with NAALAD-ase I; set-up: expressed in transfected cells; host or cells: COS cells, transient, pcDNA-3 (CMV promoter)
# Protocol: as §1, §2, §3
# T2 sequence (Q04609 whole entry Y75H): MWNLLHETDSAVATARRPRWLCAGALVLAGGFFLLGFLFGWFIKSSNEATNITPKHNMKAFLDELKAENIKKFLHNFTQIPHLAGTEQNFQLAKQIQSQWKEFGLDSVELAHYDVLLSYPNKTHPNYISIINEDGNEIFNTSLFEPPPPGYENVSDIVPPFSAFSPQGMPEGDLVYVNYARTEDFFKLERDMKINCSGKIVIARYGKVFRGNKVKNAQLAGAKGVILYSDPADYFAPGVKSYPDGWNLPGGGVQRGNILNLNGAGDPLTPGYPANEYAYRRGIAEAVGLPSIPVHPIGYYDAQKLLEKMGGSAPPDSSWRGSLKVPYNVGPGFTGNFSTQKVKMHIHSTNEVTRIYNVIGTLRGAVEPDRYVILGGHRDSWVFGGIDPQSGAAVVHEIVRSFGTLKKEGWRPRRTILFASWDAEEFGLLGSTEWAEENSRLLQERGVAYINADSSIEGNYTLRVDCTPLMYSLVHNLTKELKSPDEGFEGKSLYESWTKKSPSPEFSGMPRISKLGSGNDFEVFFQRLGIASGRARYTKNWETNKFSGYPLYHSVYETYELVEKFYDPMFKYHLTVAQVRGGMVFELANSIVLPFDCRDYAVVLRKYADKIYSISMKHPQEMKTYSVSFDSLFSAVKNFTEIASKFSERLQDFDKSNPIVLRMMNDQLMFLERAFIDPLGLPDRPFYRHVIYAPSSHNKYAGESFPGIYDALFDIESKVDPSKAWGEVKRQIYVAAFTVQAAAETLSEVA
# T1 sequence (Q9Y3Q0 whole entry): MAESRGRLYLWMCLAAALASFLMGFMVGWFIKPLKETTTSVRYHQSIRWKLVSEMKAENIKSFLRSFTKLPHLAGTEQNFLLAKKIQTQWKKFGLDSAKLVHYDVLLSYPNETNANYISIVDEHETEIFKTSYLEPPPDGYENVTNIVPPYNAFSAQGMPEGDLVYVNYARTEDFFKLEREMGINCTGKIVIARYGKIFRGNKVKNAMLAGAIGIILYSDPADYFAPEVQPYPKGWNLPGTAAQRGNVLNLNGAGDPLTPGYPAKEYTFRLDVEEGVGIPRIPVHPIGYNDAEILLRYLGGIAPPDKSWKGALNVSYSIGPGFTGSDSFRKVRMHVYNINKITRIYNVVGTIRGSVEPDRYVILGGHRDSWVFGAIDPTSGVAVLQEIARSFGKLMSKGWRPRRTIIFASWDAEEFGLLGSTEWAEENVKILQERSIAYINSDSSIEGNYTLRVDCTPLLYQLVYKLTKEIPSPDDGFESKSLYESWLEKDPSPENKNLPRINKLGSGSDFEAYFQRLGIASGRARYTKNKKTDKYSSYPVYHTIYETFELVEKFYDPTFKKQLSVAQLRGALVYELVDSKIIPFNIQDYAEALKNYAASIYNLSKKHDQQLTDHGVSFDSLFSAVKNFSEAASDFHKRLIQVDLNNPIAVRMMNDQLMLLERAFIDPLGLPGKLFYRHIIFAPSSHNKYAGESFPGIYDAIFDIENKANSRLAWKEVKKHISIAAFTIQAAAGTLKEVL
# T4 sequence (Q04609 whole entry): as the sequence (Q04609 whole entry Y75H) above, with H75Y counted along it
structure (smiles),measurement,setting,value
N[C@@H](Cn1oc(=O)[nH]c1=O)C(=O)O [quisqualic acid],inhibition at 30 µM,"NAALAD-ase II; 30 μM, after 60 min (FIG. 9B)",> 50%
same,IC50,"NAALAD-ase II; IC50, inhibition of NAALAD-ase II activity, 500 nM [3H]-NAAG, 37° C., 60 min, anion exchange column readout (FIG. 9C)",17 µM
same,IC50,"NAALAD-ase II; IC50 for NAALAD-ase II (discussion, rounded), recombinant preparation from COS cells, NAAG hydrolysis",~10 µM
same,IC50,NAALAD-ase I [1],1 µM
same,inhibition of NAALAD-ase L activity against NAAG,NAALAD-ase L,inhibited
same,IC50,[2],0.91 µM
same,inhibition at 30 µM,"NAALAD-ase I [3]; 30 μM, after 60 min (FIG. 9A)",> 50%
same,IC50,"NAALAD-ase I [3]; IC50, inhibition of NAALAD-ase I activity, 500 nM [3H]-NAAG, 37° C., 30 min, anion exchange column readout (FIG. 9C)",12 µM
same,IC50,"NAALAD-ase I [3]; IC50 for NAALAD-ase I (discussion, rounded), recombinant preparation from COS cells, NAAG hydrolysis",~10 µM
